Where two headings read alike, the source gives them in different places.

What all share (test): Test A postemergence
Holding throughout (type): in vivo

One assay deals with Kochia (Kochia scoparia). The note with it: Bassia scoparia, post-emergence, 240 h; for pest or weed control at 125 g/ha: 125 g ai/ha; for pest or weed control at 500 g/ha: 500 g ai/ha, visual injury, 0 to 100 scale (0 no effect, 100 complete control). A digest of the protocol: (§1)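 Visual injury scores from 0, no effect, to 100, complete control, were assigned versus untreated controls roughly 10 d after treatment in the greenhouse. Test chemicals, formulated with surfactant in a non-phytotoxic solvent, were applied to planted seeds as a preemergence soil spray or postemergence to one- to two-leaf plants 2 to 10 cm tall, in loam–sand soil.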

Assay [1] relates to ryegrass, Italian (Italian ryegrass, Lolium multiflorum). The note with it: Lolium multiflorum, post-emergence, 240 h; for pest or weed control at 125 g/ha: 125 g ai/ha. The method in brief:
as §1

Assay [2] concerns blackgrass (Alopecurus myosuroides). To be noted: Alopecurus myosuroides, post-emergence, 240 h; for pest or weed control at 125 g/ha: 125 g ai/ha. The method in brief: as §1
In assay [3] the test system is giant foxtail (Setaria faberii). To be noted: Setaria faberi, post-emergence, 240 h; for pest or weed control at 125 g/ha: 125 g ai/ha; for pest or weed control at 500 g/ha: 500 g ai/ha, visual injury, 0 to 100 scale (0 no effect, 100 complete control). The method in brief: as §1
Assay [4] concerns pigweed (Amaranthus retroflexus). To be noted: Amaranthus retroflexus, post-emergence, 240 h; for pest or weed control at 125 g/ha: 125 g ai/ha. The method in brief: as §1
Assay [5] relates to wheat (Triticum aestivum). The note with it: Triticum aestivum, post-emergence, 240 h; for plant injury at 125 g/ha: 125 g ai/ha. A digest of the protocol: as §1
The mark [6] stands for this setting: Postemergence, visual injury after approximately 10 d, 0 to 100 scale where 0 is no effect and 100 is complete control, read-out: Plant response rating, Kochia.
Setting [7] is: postemergence, approx. 10 d, read-out: Plant response rating, Kochia.
The mark [8] stands for this setting: Postemergence, visual injury after approximately 10 d, 0 to 100 scale where 0 is no effect and 100 is complete control, read-out: Plant response rating, Ryegrass, Italian.
Setting [9] is: Postemergence, visual injury after approximately 10 d, 0 to 100 scale where 0 is no effect and 100 is complete control, read-out: Plant response rating, Blackgrass.
The mark [10] stands for this setting: Postemergence, visual injury after approximately 10 d, 0 to 100 scale where 0 is no effect and 100 is complete control, read-out: Plant response rating, Foxtail, Giant.
Where [11] appears, read: postemergence, approx. 10 d, read-out: Plant response rating, Foxtail, Giant.
Setting [12] is: Postemergence, visual injury after approximately 10 d, 0 to 100 scale where 0 is no effect and 100 is complete control, read-out: Plant response rating, Pigweed.
Where [13] appears, read: Postemergence, visual injury after approximately 10 d, 0 to 100 scale where 0 is no effect and 100 is complete control, read-out: Plant response rating, Wheat.
[14] abbreviates: postemergence, visual injury rating after approximately 10 d, read-out: Kochia plant response rating (0 to 100 scale, 0 no effect, 100 complete control).
Where [15] appears, read: postemergence, visual injury rating after approximately 10 d, read-out: Ryegrass, Italian plant response rating (0 to 100 scale, 0 no effect, 100 complete control).
[16] abbreviates: postemergence, visual injury rating after approximately 10 d, read-out: Blackgrass plant response rating (0 to 100 scale, 0 no effect, 100 complete control).
The mark [17] stands for this setting: postemergence, visual injury rating after approximately 10 d, read-out: Foxtail, Giant plant response rating (0 to 100 scale, 0 no effect, 100 complete control).
Where [18] appears, read: postemergence, visual injury rating after approximately 10 d, read-out: Pigweed plant response rating (0 to 100 scale, 0 no effect, 100 complete control).
The mark [19] stands for this setting: postemergence, visual injury rating after approximately 10 d, read-out: Wheat plant response rating (0 to 100 scale, 0 no effect, 100 complete control).

For the molecule `Cc1ccc([C@H]2CN(C)C(=O)[C@@H]2C(=O)Nc2cccc(F)c2F)cc1Cl` [Compound 1013], the pest or weed control at 125 g/ha in the assay with Kochia (Kochia scoparia) (setting [6]) was determined as 40%; in assay [1] (setting [8]), 0%; in assay [2] (setting [9]), 0%; in assay [3] (setting [10]), 80%; in assay [4] (setting [12]) it was 0%. Moreover, the pest or weed control at 500 g/ha in the assay with Kochia (Kochia scoparia) (setting [7]) worked out at 60%; in assay [1] (500 g ai/ha, postemergence, visual injury, 0 to 100 scale (0 no effect, 100 complete control), approx. 10 d, read-out: Plant response rating, Ryegrass, Italian), 60%; in assay [2] (500 g ai/ha, postemergence, visual injury, 0 to 100 scale (0 no effect, 100 complete control), approx. 10 d, read-out: Plant response rating, Blackgrass) it was 40%; in assay [3] (setting [11]) it was 90%; in assay [4] (500 g ai/ha, postemergence, visual injury, 0 to 100 scale (0 no effect, 100 complete control), approx. 10 d, read-out: Plant response rating, Pigweed), 40%. Further, in assay [5] (setting [13]), the plant injury at 125 g/ha was 40%. For the same molecule, in assay [5] (500 g ai/ha, postemergence, visual injury, 0 to 100 scale (0 no effect, 100 complete control), approx. 10 d, read-out: Plant response rating, Wheat), the plant injury at 500 g/ha worked out at 60%.
As to `CN1CC[C@H](c2ccc(OC(F)(F)F)cc2)[C@@H](C(=O)Nc2ccccc2C(F)(F)F)C1=O` [Compound 998], the pest or weed control at 125 g/ha (in the assay on Kochia (Kochia scoparia) (setting [6]); in assay [1] (setting [8]); in assay [2] (setting [9]); in assay [3] (setting [10]); in assay [4] (setting [12])) was 0% throughout. The plant injury at 125 g/ha in assay [5] (setting [13]) stood at 0%.
Consider `Cc1c(F)ccc([C@H]2CNC(=O)[C@@H]2C(=O)Nc2ccccc2S(C)(=O)=O)c1F` [Compound 832], for which the pest or weed control at 125 g/ha came out at 20% with Kochia (Kochia scoparia) (setting [14]); 20% in assay [1] (setting [15]); 0% in assay [2] (setting [16]); 0% in assay [3] (setting [17]); 0% in assay [4] (setting [18]). Also, the plant injury at 125 g/ha in assay [5] (setting [19]) came to 0%.
As for `CN1C[C@H](c2cc(F)cc(F)c2)[C@@H](C(=O)Nc2ccc(C(F)(F)F)nc2)C1=O` [Compound 870], the pest or weed control at 125 g/ha (in the assay with Kochia (Kochia scoparia) (setting [14]); in assay [1] (setting [15]); in assay [2] (setting [16]); in assay [3] (setting [17]); in assay [4] (setting [18])) was 0% throughout. For the same molecule, the plant injury at 125 g/ha in assay [5] (setting [19]) was determined as 0%.
In the case of `CN1C[C@H](c2cc(F)c(F)c(F)c2)[C@@H](C(=O)Nc2ccccc2S(C)(=O)=O)C1=O` [Compound 880], the pest or weed control at 125 g/ha with Kochia (Kochia scoparia) (setting [14]) was 20%; in assay [1] (setting [15]) it was 50%; in assay [2] (setting [16]) it was 0%; in assay [3] (setting [17]), 80%; in assay [4] (setting [18]), 50%. The plant injury at 125 g/ha in assay [5] (setting [19]) came to 40%.
On to `Cc1cc(C)cc([C@H]2CN(C)C(=O)[C@@H]2C(=O)Nc2cccc(F)c2F)c1` [Compound 911], for which the pest or weed control at 125 g/ha stood at 50% in the assay on Kochia (Kochia scoparia) (setting [14]); 70% in assay [1] (setting [15]); 50% in assay [2] (setting [16]); 90% in assay [3] (setting [17]); 0% in assay [4] (setting [18]). The plant injury at 125 g/ha in assay [5] (setting [19]) turned out to be 50%.
With `O=C1NC[C@H](c2cc(F)c(C(F)(F)F)c(F)c2)[C@H]1C(=O)Nc1cccc(F)c1F` [Compound 838], the pest or weed control at 125 g/ha was found to be 70% with Kochia (Kochia scoparia) (setting [14]), 30% in assay [1] (setting [15]), 90% in assay [3] (setting [17]) and 80% in assay [4] (setting [18]). The plant injury at 125 g/ha in assay [5] (setting [19]) worked out at 30%.
Turning to `Cc1cc([C@H]2CNC(=O)[C@@H]2C(=O)Nc2ccccc2Cl)ccc1C(F)(F)F` [Compound 1044], the pest or weed control at 125 g/ha in the assay with Kochia (Kochia scoparia) (postemergence, visual injury on 0 to 100 scale (0 no effect, 100 complete control), approx. 10 d, read-out: Kochia plant response rating) was found to be 0%; in assay [1] (postemergence, visual injury on 0 to 100 scale (0 no effect, 100 complete control), approx. 10 d, read-out: Ryegrass, Italian plant response rating), 0%; in assay [3] (postemergence, visual injury on 0 to 100 scale (0 no effect, 100 complete control), approx. 10 d, read-out: Foxtail, Giant plant response rating) it was 60%; in assay [4] (postemergence, visual injury on 0 to 100 scale (0 no effect, 100 complete control), approx. 10 d, read-out: Pigweed plant response rating), 30%. Further, the figures for the pest or weed control at 500 g/ha (in the assay with Kochia (Kochia scoparia) (setting [7]); in assay [3] (setting [11])) were 50% and 90%, respectively. The plant injury at 125 g/ha in assay [5] (postemergence, visual injury on 0 to 100 scale (0 no effect, 100 complete control), approx. 10 d, read-out: Wheat plant response rating) was found to be 0%.
For `COc1ccc([C@H]2CN(C)C(=O)[C@@H]2C(=O)Nc2ccccc2SC)cc1C(F)(F)F` [Compound 991], the pest or weed control at 125 g/ha in assay [1] (setting [8]) was 0%; in assay [2] (setting [9]), 0%; in assay [3] (setting [10]), 80%; in assay [4] (setting [12]), 0%. The plant injury at 125 g/ha in assay [5] (setting [13]) stood at 0%.
For the molecule `O=C1NC[C@H](c2cc(F)c(C(F)(F)F)c(F)c2)[C@H]1C(=O)Nc1ccccc1F` [Compound 837], the pest or weed control at 125 g/ha in the assay on Kochia (Kochia scoparia) (setting [14]) was found to be 20%; in assay [1] (setting [15]) it was 50%; in assay [3] (setting [17]) it was 90%; in assay [4] (setting [18]), 30%. Also, the plant injury at 125 g/ha in assay [5] (setting [19]) is 0%.
In the case of `CN1C[C@H](c2cc(F)cc(F)c2)[C@@H](C(=O)Nc2cc(O)ccc2F)C1=O` [Compound 992], the pest or weed control at 125 g/ha in assay [1] (setting [8]), in assay [2] (setting [9]), in assay [3] (setting [10]) and in assay [4] (setting [12]) was 0% throughout. Besides, the plant injury at 125 g/ha in assay [5] (setting [13]) came to 0%.

The values above are taken from patent publication US12077503B2, “Substituted cyclic amides and their use as herbicides” (FMC CORPORATION, priority 2015, dated 2024).
